Assay results reported in patent publication US4886806A, “Flavone-3-carboxylic acids compounds and pharmaceutical compositions containing them” (Kali-Chemie Pharma GmbH, priority 1987, dated 1989).

Key:
[1] = system: oxygen radical-forming activity of peritoneal exudate cells (PEC) of mice; assay: Spontaneous CL and induced CL chemiluminescence test: inhibition of oxygen radical liberation from peritoneal exudate cells (30 min preincubation); assay type: cell-based; design: concentration or dose not given beside the values; settings: for Inhibition in vitro of the oxygen radical liberation, Chemiluminescence Test % inhibition, Ind. CL: induced CL, after ZyC3b activation; for Inhibition in vitro of the oxygen radical liberation, Chemiluminescence Test % inhibition, Spnt. CL: spontaneous CL, before ZyC3b
Method: 1. To determine the inhibiting effect on the oxygen radical-forming activity of inflamed cells, the in vitro inhibition of the release of oxygen radicals from activated peritoneal exudate cells (=PEC) of mice was determined in the chemiluminescence (CL) test according to the method of Mueller-Peddinghaus (Int. J. Immunopharmac. 6, 455-466 (1984)). […] The intensity of the chemiluminescence is a measurement of the oxygen radical content in the suspension and thus the degree of activity of the inflamed cells. In this, three functionally different parameters are detected, the spontaneous CL, the induced CL and the peak CL. The spontaneous CL and the induced CL on the one hand and the peak CL on the other hand differ from each other because in the first two parameters the test substances are in contact with the cells for a 30 minute preincubation period before the inflammation irritant is added, whereas with the peak CL the cells are first stimulated, and the test substance is added at the peak of their activity. The measurement of the spontaneous CL thus detects the influence of the test substance on the relative rest activity of inflamed cells, the induced CL represents the effect of the test substances on the activatability of the cells and the inhibition of the peak CL indicates the effect of the test substances on the maximum activity of the inflamed cells. 1.1 Production of PEC suspension used in the test. In order to induce the PEC formation, female mice of 20-25 g body weight were each injected i.p. with 2 ml of a 3% solution of thioglycollate in sterile isotonic sodium chloride solution. Twenty four hours after the thioglycollate injection the cells, which predominantly consisted of polymorphonuclear leucocytes, were recovered by washing out of the abdominal cavity and washed twice. As cell culture medium there was added a commercially available solution under the designation RPMI 1640 (pH 7.2) (produced by Flow Laboratories, […], Germany), which contains 10% fetal calf serum (FCS, produced by Seromed GmbH, Munich, Germany) 18 μmol/l sodium bicarbonate and 2 μmol/l L-glutamine. The cell pellets of four animals each time were resuspended in cell culture medium, collected together and the suspension was made up to 2×10^6 cells per ml with cell culture medium. The cell suspensions were kept under ice cooling until their use the same day. 1.2 Production of the complement opsonized zymosan (=ZyC3 b) suspension used for activation. 200 mg zymosan (glycoprotein mixture isolated from the cell walls of brewer's yeast, Sacchomyces […], produced by Sigma Chemical Co., Munich, Germany) were suspended in 10 ml phosphate buffer solution according to Dulbecco (produced by Flow Laboratories, […], Germany), well stirred and heated for thirty minutes in a water bath to 100° C. After cooling, it was centrifuged for five minutes at 4° C. and at 600 ×g and the supernatant was discarded. The sediment was resuspended in 50 ml human serum and incubated for thirty minutes at 37° C. in a shaking water bath. Then it was centrifuged for five minutes at 600 ×g and 420 C., the supernatant decanted and the sediment washed with phosphate buffer solution. The working suspension of 8×10^-3 g ZyC3 b/ml was produced from the sediment by dilution with phosphate buffer solution (Mueller-Peddinghaus et al., Zbl. Vet. Med. B. 30, 559-575). 1.3 Chemiluminescence (CL) measurement (Peak-CL). […] At the end of this preincubation phase, 100 μl lucigenin were added, and in the course of the subsequent sixteen minute incubation phase the spontaneous CL parameter was determined with two measuring points. Then 100 μl ZyC3 b+100 μl phosphate buffer were added, and during the course of the subsequent twenty-four minute cell activation the induced CL parameter was measured with three measuring points. All measurements were determined twice. The parameters spontaneous CL and induced CL were determined on the same day with two separate cell pools.

[2] = system: oxygen radical-forming activity of activated peritoneal exudate cells (PEC) of mice; assay: Peak chemiluminescence (CL) test: inhibition of oxygen radical liberation from activated peritoneal exudate cells; assay type: cell-based; settings: Mus musculus, 10^-4 Mol substance/l, added at peak of cell activity, read-out: Inhibition in vitro of the oxygen radical liberation, Chemiluminescence Test % inhibition, Pk. CL
Method: 1. To determine the inhibiting effect on the oxygen radical-forming activity of inflamed cells, the in vitro inhibition of the release of oxygen radicals from activated peritoneal exudate cells (=PEC) of mice was determined in the chemiluminescence (CL) test according to the method of Mueller-Peddinghaus (Int. J. Immunopharmac. 6, 455-466 (1984)). […] The intensity of the chemiluminescence is a measurement of the oxygen radical content in the suspension and thus the degree of activity of the inflamed cells. In this, three functionally different parameters are detected, the spontaneous CL, the induced CL and the peak CL. The spontaneous CL and the induced CL on the one hand and the peak CL on the other hand differ from each other because in the first two parameters the test substances are in contact with the cells for a 30 minute preincubation period before the inflammation irritant is added, whereas with the peak CL the cells are first stimulated, and the test substance is added at the peak of their activity. The measurement of the spontaneous CL thus detects the influence of the test substance on the relative rest activity of inflamed cells, the induced CL represents the effect of the test substances on the activatability of the cells and the inhibition of the peak CL indicates the effect of the test substances on the maximum activity of the inflamed cells. 1.1 Production of PEC suspension used in the test. In order to induce the PEC formation, female mice of 20-25 g body weight were each injected i.p. with 2 ml of a 3% solution of thioglycollate in sterile isotonic sodium chloride solution. Twenty four hours after the thioglycollate injection the cells, which predominantly consisted of polymorphonuclear leucocytes, were recovered by washing out of the abdominal cavity and washed twice. As cell culture medium there was added a commercially available solution under the designation RPMI 1640 (pH 7.2) (produced by Flow Laboratories, […], Germany), which contains 10% fetal calf serum (FCS, produced by Seromed GmbH, Munich, Germany) 18 μmol/l sodium bicarbonate and 2 μmol/l L-glutamine. The cell pellets of four animals each time were resuspended in cell culture medium, collected together and the suspension was made up to 2×10^6 cells per ml with cell culture medium. The cell suspensions were kept under ice cooling until their use the same day. 1.2 Production of the complement opsonized zymosan (=ZyC3 b) suspension used for activation. 200 mg zymosan (glycoprotein mixture isolated from the cell walls of brewer's yeast, Sacchomyces […], produced by Sigma Chemical Co., Munich, Germany) were suspended in 10 ml phosphate buffer solution according to Dulbecco (produced by Flow Laboratories, […], Germany), well stirred and heated for thirty minutes in a water bath to 100° C. After cooling, it was centrifuged for five minutes at 4° C. and at 600 ×g and the supernatant was discarded. The sediment was resuspended in 50 ml human serum and incubated for thirty minutes at 37° C. in a shaking water bath. Then it was centrifuged for five minutes at 600 ×g and 420 C., the supernatant decanted and the sediment washed with phosphate buffer solution. The working suspension of 8×10^-3 g ZyC3 b/ml was produced from the sediment by dilution with phosphate buffer solution (Mueller-Peddinghaus et al., Zbl. Vet. Med. B. 30, 559-575). 1.3 Chemiluminescence (CL) measurement (Peak-CL). The PEC suspension was divided into samples of 100 μl each, placed in test tubes, and these were incubated for ten minutes at a temperature of 3720 C. in a measurement device (Chemiluminescence analyzer, Laboratorium Prof. Berthold, Wildbad, Germany). Then in order to amplify the chemiluminescence, 100 μl lucigenin solution was added (final concentration 1.54×10^-4 mol/l) and incubated for 16 more minutes. The cells were then activated by the addition of 100 μl of the ZyC3 b suspension produced as described in section 1.2 plus 100 μl phosphate buffer solution. […]

male mice = assay: Determination of the minimum toxic dose; assay type: in vivo; settings: max. dose 300 mg/kg, 24 h
Method: 3. Determination of the minimum toxic dose.
Male mice of 20 to 25 g weight were given maximal doses of 300 mg/kg of test substance per os. The animals were carefully watched over a period of three hours for toxicity symptoms. Over a period of twenty-four hours after administration, all symptoms and deaths were recorded. Associated symptoms were also watched and recorded. If death or strongly toxic symptoms were noted, further mice were given increasingly lower doses. The lowest dose which brought about death or strongly toxic symptoms was reported as the minimum toxic dose.

[3] = system: carrageenin foot edema in male Wistar rats; assay: Inhibition of carrageenin foot edema in rats (Winter et al.); assay type: in vivo; settings: Rattus norvegicus, 2 h after irritant
Method: A similar volume of isotonic sodium chloride solution was injected in the left hind foot. The volume of the each rat's foot was measured plethysmometrically both before and two hours after administration of the irritant, and the swelling of the foot volume after the carrageenin application was compared to the foot which was treated only with sodium chloride solution The inhibition of edema formation by the test substances in the treated animals was compared in percentage terms with the animals of the untreated control group.

| Structure (SMILES) | Inhibition in vitro of the oxygen radical liberation, Chemiluminescence Test % inhibition, Ind. CL [1] [%] | Inhibition in vitro of the oxygen radical liberation, Chemiluminescence Test % inhibition, Spnt. CL [1] [%] | inhibition at 100 µM (stock) [2] [%] | Minimal toxic dose mg/kg mouse p.o. (male mice) [mg/kg] | inhibition in vivo at 215 µmol/kg ([3]; ip, 215 μmol/kg i.p.) [%] | inhibition in vivo at 215 µmol/kg ([3]; po, 215 μmol/kg p.o.) [%] | inhibition in vivo at 100 µmol/kg ([3]; po, 100 μmol/kg p.o.) [%] |
| --- | --- | --- | --- | --- | --- | --- | --- |
| O=C(c1c(-c2ccccc2)oc2ccccc2c1=O)N1CC[N+]([O-])(Cc2ccccc2)CC1 [Example 5, 3-[(4-benzylpiperazin-1-yl)-carbonyl]-flavone N-oxide] | 25 | 49 | 12 | > 300 |  |  |  |
| COc1cc(-c2oc3ccccc3c(=O)c2C(=O)NCCCCN2CCN(c3ccccn3)CC2)cc(OC)c1OC [Example 6b, 3',4',5'-Trimethoxy-3-{4-[4-(2-pyridyl)-piperazin-1-yl]-butylaminocarbonyl}flavone] |  |  |  |  | 75 |  |  |
| O=C(c1c(-c2cc(O)c(O)c(O)c2)oc2ccccc2c1=O)N1CCN(c2ccccn2)CC1 [Example 10b, 3',4',5'-Trihydroxy-3-{[4-(2-pyridyl)-piperazin-1-yl]-carbonyl}flavone] |  |  |  |  | 35 | 30 |  |
| CN1CCN(C(=O)c2c(-c3ccccc3)oc3ccccc3c2=O)CC1 [Example 16a] |  |  |  |  |  |  | 20 |
| O=C(NC1CCN(Cc2ccccc2)CC1)c1c(-c2ccccc2)oc2ccccc2c1=O [Example 18b] | 50 | 30 | 41 | 300 |  |  |  |
| O=C(NCCN1CCCC1)c1c(-c2ccccc2)oc2ccccc2c1=O [Example 20b] | 43 | 72 | 27 | 100 |  |  |  |
| CCN(CC)CCNC(=O)c1c(-c2ccccc2)oc2ccccc2c1=O [Example 22b] | 43 | 67 | 25 | 300 |  |  |  |
| O=C(NCCCCN1CCN(Cc2ccccc2)CC1)c1c(-c2ccccc2)oc2ccccc2c1=O [Example 23] | 88 | 95 | 63 | 300 |  |  |  |
| O=C(NCCCCN1CCN(c2ncccn2)CC1)c1c(-c2ccccc2)oc2ccccc2c1=O [Example 25] |  |  |  |  | 58 | 25 |  |
| COc1ccc(-c2oc3ccccc3c(=O)c2C(=O)N2CCN(C)CC2)cc1 [Example 28] | 29 | 54 | 5 | > 300 |  |  |  |
| CCCCCCCCCCCCCCCCOc1ccc(-c2oc3ccccc3c(=O)c2C(=O)N2CCN(Cc3ccccc3)CC2)cc1 [Example 36] |  |  |  |  |  | 30 |  |
| COc1cc(-c2oc3ccccc3c(=O)c2C(=O)NCCCN2CCOCC2)cc(OC)c1OC [Example 46] | 25 | 52 | 11 | > 300 |  |  |  |
| COc1cc(-c2oc3ccccc3c(=O)c2C(=O)OCCN2CCN(c3ccccn3)CC2)cc(OC)c1OC [Example 47] | 76 | 78 | 70 | 100 |  |  |  |
| COc1cc(-c2oc3ccccc3c(=O)c2C(=O)OCCN2CCCC2)cc(OC)c1OC [Example 49] | 64 | 86 | 41 | 300 |  |  |  |
| COc1cc(-c2oc3ccccc3c(=O)c2C(=O)NCCCC[N+]2([O-])CC[N+]([O-])(Cc3ccccc3)CC2)cc(OC)c1OC (centres unmarked) [Example 52] |  |  |  |  | 53 |  |  |
| CCC(=O)Oc1cc(-c2oc3ccccc3c(=O)c2C(=O)N2CCN(c3ccccn3)CC2)cc(OC(=O)CC)c1OC(=O)CC [Example 56] | 70 | 52 | 37 |  |  |  |  |
